Test results from ChEMBL document CHEMBL5625199, “Discovery of triazole-bridged aryl adamantane analogs as an intriguing class of multifunctional agents for treatment of Alzheimer's disease” (Eur J Med Chem, 2023).
Active and inactive are the calls of the source. The calls are words filed in the database; no cut-off is given here.

What was measured:
in vitro = conditions: PAMPA
Description: Permeability of the compound at 25 ug/ml incubated or 18 hrs by PAMPA-BBB assay

[1] = Selectivity index, ratio of IC50 for equine serum BuChE to IC50 for electric eel AChE
Acetylcholinesterase [2] = target: Acetylcholinesterase (Electrophorus electricus, UniProt O42275); test: Inhibition of electric eel AChE using acetylthiocholine iodide as substrate preincubated with enzyme for 10 mins followed by substrate addition and measured every 1 min for 20 mins by spectrophotometric analysis
Cholinesterase = Cholinesterase (Equus caballus, UniProt P81908); test: Inhibition of equine serum BuChE using butyrylthiocholine iodide as substrate preincubated with enzyme for 10 mins followed by substrate addition and measured every 1 min for 20 mins by spectrophotometric analysis
[3] = Antagonist activity at GluN1-1a/GluN2B (unknown origin) expressed in xenopus laevis oocytes assessed as inhibition of glycine/glutamate-induced channel current incubated for 20s measured at holding potential of -70 mV by two-electrode voltage clamp technique; assay type: cell-based, Homo sapiens; conditions: Oocyte
Acetylcholinesterase [4] = target: T1, Acetylcholinesterase (Homo sapiens, UniProt P22303); test: Inhibition of AChE (unknown origin)
HEK-293T [5] = test: Cytotoxicity against HEK293T cells assessed as reduction in cell viability at 0.3 to 100 uM measured after 44 hrs by WST-1 assay; assay type: toxicity, cell-based; conditions: human, dose 0.3-100 µM
[6] = Antagonist activity at GluN1-1a/GluN2C (unknown origin) expressed in xenopus laevis oocytes assessed as inhibition of glycine/glutamate-induced channel current incubated for 20s measured at holding potential of -70 mV by two-electrode voltage clamp technique; assay type: cell-based; conditions: Homo sapiens, Oocyte
[7] = Antagonist activity at GluN1-1b/GluN2C (unknown origin) expressed in xenopus laevis oocytes assessed as inhibition of glycine/glutamate-induced channel current incubated for 20s measured at holding potential of -70 mV by two-electrode voltage clamp technique; assay type: cell-based; conditions: Homo sapiens, Oocyte
[8] = Antagonist activity at GluN1-1b/GluN2D (unknown origin) expressed in xenopus laevis oocytes assessed as inhibition of glycine/glutamate-induced channel current incubated for 20s measured at holding potential of -70 mV by two-electrode voltage clamp technique; assay type: cell-based; conditions: Homo sapiens, Oocyte
[9] = Antagonist activity at GluN1-1b/GluN2A (unknown origin) expressed in xenopus laevis oocytes assessed as inhibition of glycine/glutamate-induced channel current incubated for 20s measured at holding potential of -70 mV by two-electrode voltage clamp technique; assay type: cell-based; conditions: Homo sapiens, Oocyte
[10] = Antagonist activity at GluN1-1b/GluN2B (unknown origin) expressed in xenopus laevis oocytes assessed as inhibition of glycine/glutamate-induced channel current incubated for 20s measured at holding potential of -70 mV by two-electrode voltage clamp technique; assay type: cell-based; conditions: Homo sapiens, Oocyte
[11] = Antagonist activity at GluN1-1a/GluN2D (unknown origin) expressed in xenopus laevis oocytes assessed as inhibition of glycine/glutamate-induced channel current incubated for 20s measured at holding potential of -70 mV by two-electrode voltage clamp technique; assay type: cell-based; conditions: Homo sapiens, Oocyte
[12] = Antagonist activity at GluN1-1a/GluN2A (unknown origin) expressed in xenopus laevis oocytes assessed as inhibition of glycine/glutamate-induced channel current incubated for 20s measured at holding potential of -70 mV by two-electrode voltage clamp technique; assay type: cell-based; conditions: Homo sapiens, Oocyte
[13] = target: Amyloid-beta precursor protein (Homo sapiens) (UniProt P05067); test: Inhibition of self-induced Amyloid beta (1 to 42 residues) (unknown origin) aggregation at Abeta(1 to 42) to compound concentration ratio of 10:5 to 10:20 uM incubated for 48 hrs by ThT fluorescence method
Rattus norvegicus [14] = test: Antialzheimer activity against Abeta(1 to 42)-induced coginitive deficit Wistar rat model assessed as increase in time spent in the platform zone at 10 mg/kg, po administered for 7 days by Morris water maze test; assay type: functional, organism-based; conditions: time 7.0 day
[15] = target: T2, Acetylcholinesterase (Rattus norvegicus) (UniProt P37136); test: Ex vivo inhibition of AChE activity in brain of scopalamine-induced amnesia Wistar rat model at 10 mg/kg, po administered for 7 days and on day 7 administered with scopolamine at 30 mins before drug administration; assay type: functional, organism-based; conditions: time 7.0 day
T2 sequence (whole entry): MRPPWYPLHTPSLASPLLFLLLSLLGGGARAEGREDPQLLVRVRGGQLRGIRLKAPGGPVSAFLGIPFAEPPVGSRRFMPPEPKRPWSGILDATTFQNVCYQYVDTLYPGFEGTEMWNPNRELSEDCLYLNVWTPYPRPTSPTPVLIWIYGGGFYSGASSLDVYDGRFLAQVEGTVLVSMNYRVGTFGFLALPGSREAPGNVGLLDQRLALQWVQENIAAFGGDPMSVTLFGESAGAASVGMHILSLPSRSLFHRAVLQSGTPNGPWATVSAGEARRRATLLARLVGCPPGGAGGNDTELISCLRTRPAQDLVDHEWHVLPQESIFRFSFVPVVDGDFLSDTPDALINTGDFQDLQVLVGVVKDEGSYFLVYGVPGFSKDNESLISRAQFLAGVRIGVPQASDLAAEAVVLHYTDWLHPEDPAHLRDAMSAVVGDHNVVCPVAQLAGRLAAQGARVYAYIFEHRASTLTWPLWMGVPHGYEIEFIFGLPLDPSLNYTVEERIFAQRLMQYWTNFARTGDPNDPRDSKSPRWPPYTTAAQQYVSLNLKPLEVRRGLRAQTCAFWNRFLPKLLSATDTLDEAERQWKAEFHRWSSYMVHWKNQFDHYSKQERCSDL

SH-SY5Y = test: Neuroprotective activity against human SH-SY5Y cells assessed as reduction of Abeta(1 to 42)-induced cytotoxicity upto 10 uM pretreated with Abeta42 for 24 hrs followed by incubation with compound for 72 hrs by MTT assay; assay type: functional, cell-based
Acetylcholinesterase [16] = target: T1, Acetylcholinesterase; test: Inhibition of human AChE
HEK-293T [17] = test: Cytotoxicity against HEK293T cells assessed as reduction in cell viability at 0.3 to 30 uM measured after 44 hrs by WST-1 assay; assay type: toxicity, cell-based; conditions: human, dose 0.3-30 µM
Rattus norvegicus [18] = test: (§1) Antialzheimer activity against scopalamine-induced amnesia Wistar rat model assessed as inhibition of cognition impairment by measuring increase in spontaneous alterations at 2.5 to 10 mg/kg, po administered for 7 days and on day 7 administered with scopolamine at 30 mins before drug administration by Y-maze test; assay type: functional, organism-based; conditions: dose 2.5-10 mg/kg, time 7.0 day
Rattus norvegicus [19] = test: as §1, with “at” for “at 2.5 to”; assay type: functional, organism-based; conditions: time 7.0 day
Rattus norvegicus [20] = test: Antialzheimer activity against Abeta(1 to 42)-induced coginitive deficit Wistar rat model assessed as increase in total number of platform crossings at 10 mg/kg, po administered for 7 days by Morris water maze test; assay type: functional, organism-based; conditions: time 7.0 day
HEK-293T [21] = test: Cytotoxicity against HEK293T cells assessed as reduction in cell viability at 100 uM measured after 44 hrs by WST-1 assay; assay type: toxicity, cell-based; conditions: human
[22] = target: T2, Acetylcholinesterase (Rattus norvegicus); test: Ex vivo inhibition of AChE activity in brain of scopalamine-induced amnesia Wistar rat model at 2.5 to 10 mg/kg, po administered for 7 days and on day 7 administered with scopolamine at 30 mins before drug administration; assay type: functional, organism-based; conditions: dose 2.5-10 mg/kg, time 7.0 day
[23] = target: Amyloid-beta precursor protein (Homo sapiens) (UniProt P05067); test: Inhibition of AChE-induced Amyloid beta (1 to 42 residues) (unknown origin) aggregation at Abeta(1 to 42) to compound concentration ratio of 10:5 to 10:20 uM incubated for 48 hrs by ThT fluorescence method
[24] = Antagonist activity at NMDA receptor (unknown origin); design: species or system Homo sapiens
[25] = target: Glutamate receptor ionotropic, NMDA 2A (Homo sapiens, UniProt Q05586+Q12879); test: Antagonist activity at GluN2A NMDA receptor (unknown origin)
Chain of Glutamate receptor ionotropic, NMDA 2A (Q12879 whole entry, one chain of several): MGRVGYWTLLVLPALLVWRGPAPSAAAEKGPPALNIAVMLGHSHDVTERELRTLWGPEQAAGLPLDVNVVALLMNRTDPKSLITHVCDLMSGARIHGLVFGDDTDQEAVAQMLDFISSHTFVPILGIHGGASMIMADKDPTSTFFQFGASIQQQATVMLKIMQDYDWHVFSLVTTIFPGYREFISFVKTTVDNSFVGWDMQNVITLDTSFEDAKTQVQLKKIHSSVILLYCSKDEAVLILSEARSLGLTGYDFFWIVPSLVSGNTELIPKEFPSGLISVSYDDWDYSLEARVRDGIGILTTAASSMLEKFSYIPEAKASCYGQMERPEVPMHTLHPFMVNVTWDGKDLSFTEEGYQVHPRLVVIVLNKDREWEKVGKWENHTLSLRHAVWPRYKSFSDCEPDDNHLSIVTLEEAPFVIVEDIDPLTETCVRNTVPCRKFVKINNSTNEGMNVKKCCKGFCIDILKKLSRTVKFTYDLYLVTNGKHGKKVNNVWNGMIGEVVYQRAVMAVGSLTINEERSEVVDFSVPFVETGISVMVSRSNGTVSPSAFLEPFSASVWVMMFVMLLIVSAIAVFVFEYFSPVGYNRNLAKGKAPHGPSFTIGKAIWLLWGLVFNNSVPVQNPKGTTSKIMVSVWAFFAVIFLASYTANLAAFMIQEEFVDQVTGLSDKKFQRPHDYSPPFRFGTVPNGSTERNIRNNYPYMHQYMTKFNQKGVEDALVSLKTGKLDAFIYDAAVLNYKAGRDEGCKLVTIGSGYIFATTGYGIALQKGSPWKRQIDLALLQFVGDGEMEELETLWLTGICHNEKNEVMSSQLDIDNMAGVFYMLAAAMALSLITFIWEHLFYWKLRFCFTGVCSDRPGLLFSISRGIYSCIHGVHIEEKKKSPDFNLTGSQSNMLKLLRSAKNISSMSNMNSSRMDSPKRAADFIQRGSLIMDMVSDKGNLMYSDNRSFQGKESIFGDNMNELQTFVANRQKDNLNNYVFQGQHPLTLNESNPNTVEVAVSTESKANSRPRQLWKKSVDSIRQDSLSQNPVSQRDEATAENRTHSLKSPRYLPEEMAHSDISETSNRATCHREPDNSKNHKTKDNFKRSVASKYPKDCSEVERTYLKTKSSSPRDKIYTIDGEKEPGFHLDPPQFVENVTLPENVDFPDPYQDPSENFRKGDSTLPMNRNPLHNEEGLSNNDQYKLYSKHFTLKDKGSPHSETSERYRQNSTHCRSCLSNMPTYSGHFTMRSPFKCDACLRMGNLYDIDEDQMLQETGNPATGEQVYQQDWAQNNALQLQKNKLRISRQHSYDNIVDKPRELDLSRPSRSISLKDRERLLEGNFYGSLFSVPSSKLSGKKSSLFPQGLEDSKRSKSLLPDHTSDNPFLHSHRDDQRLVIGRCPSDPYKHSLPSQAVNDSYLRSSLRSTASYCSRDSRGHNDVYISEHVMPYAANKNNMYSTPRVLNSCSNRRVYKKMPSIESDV

T1 sequence (P22303 whole entry): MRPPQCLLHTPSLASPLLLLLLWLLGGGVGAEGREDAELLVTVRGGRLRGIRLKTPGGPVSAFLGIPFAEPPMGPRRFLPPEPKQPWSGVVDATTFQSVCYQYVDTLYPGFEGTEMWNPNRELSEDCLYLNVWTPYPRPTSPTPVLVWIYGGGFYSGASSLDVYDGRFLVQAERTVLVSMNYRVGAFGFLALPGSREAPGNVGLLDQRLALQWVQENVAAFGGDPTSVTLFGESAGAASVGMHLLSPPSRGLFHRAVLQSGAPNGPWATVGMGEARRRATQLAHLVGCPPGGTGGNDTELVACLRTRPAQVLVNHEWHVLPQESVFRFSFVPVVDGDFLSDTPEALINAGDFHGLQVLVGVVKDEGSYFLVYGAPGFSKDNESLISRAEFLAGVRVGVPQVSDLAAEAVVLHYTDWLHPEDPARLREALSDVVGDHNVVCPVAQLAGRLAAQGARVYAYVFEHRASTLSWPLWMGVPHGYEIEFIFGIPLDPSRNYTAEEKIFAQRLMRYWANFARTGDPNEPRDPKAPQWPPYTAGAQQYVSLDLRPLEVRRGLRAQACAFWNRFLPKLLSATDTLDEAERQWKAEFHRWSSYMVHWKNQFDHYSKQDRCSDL
Chain of Acetylcholinesterase (Electrophorus electricus, UniProt O42275) (O42275 whole entry): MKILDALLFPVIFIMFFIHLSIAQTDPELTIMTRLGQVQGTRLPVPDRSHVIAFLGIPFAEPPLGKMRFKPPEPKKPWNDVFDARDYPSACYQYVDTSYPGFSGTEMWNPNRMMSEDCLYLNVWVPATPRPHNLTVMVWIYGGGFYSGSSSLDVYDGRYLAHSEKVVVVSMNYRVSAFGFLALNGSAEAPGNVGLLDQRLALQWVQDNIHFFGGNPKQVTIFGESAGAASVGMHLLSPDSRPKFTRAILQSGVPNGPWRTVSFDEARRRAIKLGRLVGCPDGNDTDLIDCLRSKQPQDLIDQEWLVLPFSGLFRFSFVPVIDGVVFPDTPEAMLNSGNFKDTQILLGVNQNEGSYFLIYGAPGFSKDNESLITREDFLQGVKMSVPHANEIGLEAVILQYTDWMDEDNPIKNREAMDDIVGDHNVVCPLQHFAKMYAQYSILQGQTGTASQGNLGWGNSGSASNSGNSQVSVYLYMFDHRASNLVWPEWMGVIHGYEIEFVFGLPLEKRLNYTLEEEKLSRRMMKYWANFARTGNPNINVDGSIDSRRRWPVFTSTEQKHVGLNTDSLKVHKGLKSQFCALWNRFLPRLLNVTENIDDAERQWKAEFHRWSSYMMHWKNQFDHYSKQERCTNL
Chain of Cholinesterase (P81908 whole entry): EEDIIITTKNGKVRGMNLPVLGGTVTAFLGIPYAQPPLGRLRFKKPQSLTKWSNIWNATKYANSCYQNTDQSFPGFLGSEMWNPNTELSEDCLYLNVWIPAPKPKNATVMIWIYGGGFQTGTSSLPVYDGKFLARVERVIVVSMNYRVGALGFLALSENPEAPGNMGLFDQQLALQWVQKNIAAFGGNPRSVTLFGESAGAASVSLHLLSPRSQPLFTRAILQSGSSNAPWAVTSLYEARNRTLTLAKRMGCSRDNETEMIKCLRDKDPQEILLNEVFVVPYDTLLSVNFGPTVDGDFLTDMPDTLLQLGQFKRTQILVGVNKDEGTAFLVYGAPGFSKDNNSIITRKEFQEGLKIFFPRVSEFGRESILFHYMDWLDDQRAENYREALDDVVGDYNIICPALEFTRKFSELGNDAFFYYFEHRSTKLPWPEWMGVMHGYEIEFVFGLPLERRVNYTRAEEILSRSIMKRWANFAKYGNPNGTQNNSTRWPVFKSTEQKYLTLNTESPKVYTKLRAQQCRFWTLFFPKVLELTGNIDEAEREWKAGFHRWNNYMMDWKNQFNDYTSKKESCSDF
Chain of Amyloid-beta precursor protein (Homo sapiens) (P05067 whole entry, the tested form may be a part): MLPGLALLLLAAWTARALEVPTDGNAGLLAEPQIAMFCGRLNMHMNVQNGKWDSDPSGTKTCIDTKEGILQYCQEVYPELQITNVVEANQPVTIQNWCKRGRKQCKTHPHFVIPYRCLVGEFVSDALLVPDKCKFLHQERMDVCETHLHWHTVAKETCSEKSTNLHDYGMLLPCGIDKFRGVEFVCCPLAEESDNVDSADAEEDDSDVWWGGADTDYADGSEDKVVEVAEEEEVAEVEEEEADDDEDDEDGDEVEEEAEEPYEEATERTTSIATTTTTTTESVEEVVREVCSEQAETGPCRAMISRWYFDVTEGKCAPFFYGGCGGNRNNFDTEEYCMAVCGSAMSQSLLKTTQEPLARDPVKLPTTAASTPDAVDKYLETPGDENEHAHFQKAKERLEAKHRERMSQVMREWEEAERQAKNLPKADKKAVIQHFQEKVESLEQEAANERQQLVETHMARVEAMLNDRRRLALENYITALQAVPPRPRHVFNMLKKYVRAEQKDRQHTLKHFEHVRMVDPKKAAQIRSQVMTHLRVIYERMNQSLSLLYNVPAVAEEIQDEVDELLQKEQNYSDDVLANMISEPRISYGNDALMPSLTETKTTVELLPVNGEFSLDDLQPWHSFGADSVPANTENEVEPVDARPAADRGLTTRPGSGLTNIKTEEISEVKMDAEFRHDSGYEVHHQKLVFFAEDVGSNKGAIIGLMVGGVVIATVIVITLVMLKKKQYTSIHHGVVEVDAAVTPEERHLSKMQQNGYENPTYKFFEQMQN

Compound | Papp at 18 h, 25 ug/ml (in vitro) [×10⁻⁶ cm/s] | Ratio IC50 [1] | IC50 (Acetylcholinesterase [2]) [nM] | IC50 (Cholinesterase) [µM] | IC50 [3] [µM] | IC50 (Acetylcholinesterase [16]) [nM] | also measured
Cc1ccc(Cn2cc(CNC34CC5CC(CC(C5)C3)C4)nn2)cc1 | 7.48 | 17.8 | 340 | 6.04 | 197 |  | 
Fc1ccc(Cn2cc(CNC34CC5CC(CC(C5)C3)C4)nn2)cc1 | 7.75 | 16.9 | 194 | 3.27 |  |  | 
c1ccc(Cn2cc(CNC3CCCCCC3)nn2)cc1 | 7.2 | 8.02 | 1410 | 11.4 |  |  | 
CC12CC3CC(C)(C1)CC(N)(C3)C2 [MEMANTINE] | 6.84 |  |  |  | 0.778 |  | IC50 (Acetylcholinesterase [4]): 0.78 µM; Activity (HEK-293T [5]): Toxic; IC50 [6]: 0.222 µM; IC50 [7]: 0.318 µM; IC50 [8]: 0.592 µM; IC50 [9]: 3.39 µM; IC50 [10]: 1270 nM; IC50 [11]: 0.367 µM; IC50 [12]: 3.47 µM
Clc1ccc(Cn2cc(CNC34CC5CC(CC(C5)C3)C4)nn2)cc1 | 8.24 | 28.1 | 135 | 3.8 | 5.05 | 133 | inhibition [13]: Dose-Dependent Effect; Activity (Rattus norvegicus [14]): Active; IC50 [6]: 143 µM; inhibition [15]: Active; Activity (SH-SY5Y): Active; Activity (HEK-293T [17]): Non-Toxic; Activity (Rattus norvegicus [18]): Dose-Dependent Effect; Activity (Rattus norvegicus [19]): Active; IC50 [7]: 52.8 µM; Activity (Rattus norvegicus [20]): Active; Activity (HEK-293T [21]): Toxic; IC50 [8]: 239 µM; IC50 [9]: 142 µM; IC50 [10]: 2860 nM; IC50 [11]: 789 µM; inhibition [22]: Dose-Dependent Effect; inhibition [23]: Dose-Dependent Effect; IC50 [12]: 129 µM
COc1ccc2nc3c(c(NCCCCCNC(=S)N[C@]45CC6C[C@@H](C[C@@H](C6)C4)C5)c2c1)CCCC3 |  |  |  |  |  | 470 | Ki [24]: 1800 nM
CC(C(O)c1ccc(O)cc1)N1CCC(Cc2ccccc2)CC1 (centres undefined) [IFENPRODIL] |  |  |  |  |  |  | IC50 [25]: 146 µM
Brc1ccc(Cn2cc(CNC3CCCCCC3)nn2)cc1 | 6.72 | 31.4 | 550 | 17.3 | 38.2 | 621 | 
Clc1ccc(Cn2cc(CNC3CCCCCC3)nn2)cc1 | 6.84 | 27.1 | 607 | 16.5 |  | 927 | 
F[C@]12CC3C[C@](NCCCCCNc4c5c(nc6cc(Cl)ccc46)CCCC5)(C[C@H](C1)c1ccccc13)C2 |  |  |  |  |  |  | IC50 [24]: 900 nM
COc1ccc2c(c1)c(=O)c1ccccc1n2Cc1cn(Cc2ccc(Cl)cc2)nn1 |  |  |  |  |  |  | IC50 (Acetylcholinesterase [4]): 7.31 µM
